Our source for the TGI values is PubChem BioAssay (NCI).

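These data come from cells grown in 96-well plates and exposed to compound for 48 hours at five concentrations. TGI is the concentration that stops growth completely.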

Common to all, as to test: NCI tumour cell line growth inhibition, 48 h
Test [1] deals with HCT-15 colon.
For test [2], the system named is RPMI-8226 leukemia.
In test [3] the test system is ACHN renal.
Test [4] has as its system SF-539 CNS.
For test [5], the system named is HT29 colon.
For test [6], the system named is OVCAR-3 ovarian.
The test system of test [7] is LOX IMVI melanoma.
In test [8] the test system is COLO 205 colon.
For test [9], the system named is SK-MEL-28 melanoma.
Test [10] relates to CCRF-CEM leukemia.
Test [11] deals with U251 CNS.
Test [12] has as its system CAKI-1 renal.
For test [13], the system named is OVCAR-8 ovarian.
In test [14] the test system is NCI/ADR-RES ovarian.
Test [15] concerns DU-145 prostate.
The test system of test [16] is HS 578T breast.
The test system of test [17] is SK-MEL-2 melanoma.

Turning to `CCC1CN2CCC3(c4ccccc4)CC(C(=O)OC)=CC1C23` (centres undefined), the TGI is 31.9 µM in [1]; more than 100 µM in test [2]; 30.4 µM in [3]; 31.3 µM in test [4]; 31.7 µM in [5]; 33.8 µM in test [6]. For the same compound, the TGI in [7] is 28.3 µM; in test [8], 31.1 µM; in test [9], 31.5 µM; in test [10], more than 100 µM; in test [11] it was 30 µM; in [12], 33.1 µM. The same compound came in with a TGI in test [13] of 33.7 µM.
As to `COP(=O)(OC)/C(=C\c1cn(C(c2ccccc2)(c2ccccc2)c2ccccc2)cn1)NC(C)=O`, the TGI in test [1], in [14], in test [3], in test [4], in [5] and in [6] was more than 100 µM each time. Also, the TGI in test [7], in test [8], in test [9], in [10], in test [11] and in [12] was more than 100 µM each time. The TGI in [15], in test [16] and in [13] was more than 100 µM each time.
Take `CCOC(OC1=C(C#N)CCCC1)C(C)[Se]c1ccccc1` (centres undefined): the TGI in [1] was more than 100 µM; in test [2], 84 µM; in test [3], more than 100 µM; in test [4] it was 38 µM; in [5] it was more than 100 µM; in test [6], more than 100 µM. Further, the TGI in [7] was 30.5 µM; in [17], more than 100 µM; in test [8] it was more than 100 µM; in test [9], 71.6 µM; in [10], 65 µM; in test [11] it was 32 µM. For the same compound, the values for the TGI in test [12] and in test [13] were more than 100 µM and 63.9 µM, respectively.
Regarding `OC(C/C=N/Nc1ccccc1)(C(F)(F)Cl)C(F)(F)Cl`, the TGI in test [1], in test [14], in test [3], in test [4], in test [5] and in test [6] was more than 10 µM throughout. The TGI in test [7], in [17], in test [8], in [9], in test [10] and in [11] was more than 10 µM each time. Further, the TGI in [12], in test [15], in test [16] and in test [13] was more than 10 µM throughout.
For `O=C(CC1C(=O)c2ccccc2C1=C1C(=O)c2ccccc2C1=O)c1ccccc1` (centres undefined), the TGI in test [1], in test [2], in test [3], in test [4], in [5] and in test [7] was more than 100 µM throughout. Besides, the TGI in test [17], in [8], in test [9], in test [10], in test [11] and in test [12] was more than 100 µM throughout. This compound yielded a TGI in test [13] of more than 100 µM.
Consider `CC(C)(C)S(=O)OC12CC3CC(CC(C3)C1)C2` (centres undefined), for which the TGI in [1], in test [2], in test [3], in test [4], in test [5] and in test [6] was more than 100 µM each time. Moreover, the TGI in test [7], in test [17], in [8], in [9], in test [10] and in test [11] was more than 100 µM in each case. The TGI in test [13] is more than 100 µM.
For the compound `COc1cc(C(=O)Oc2c(C#N)sc3c2c(=O)n(-c2ccccc2)c(=S)n3-c2ccccc2)cc(OC)c1OC`, the TGI in test [1] is 43 µM; in test [2], 28.2 µM; in test [14], 41.3 µM; in test [3], more than 100 µM; in [4], 24.1 µM; in test [5] it was 22.4 µM. The TGI was more than 100 µM in [6]; 51.6 µM in test [7]; 30.7 µM in test [8]; 46.3 µM in [9]; 28.9 µM in test [10]; 45.9 µM in test [11]. Besides, the TGI in test [12] was 84.3 µM; in test [15], 42.3 µM; in test [16], 42.5 µM; in [13] it was 59.2 µM.
With `CC1(C)O[C@@H](CBr)C[C@H](C[C@H]2C[C@@H](O)C[C@@H](CCOCc3ccccc3)O2)O1`, the TGI amounted to 57.1 µM in [1]; 97 µM in test [2]; 41.1 µM in test [14]; 57.4 µM in test [3]; 39.8 µM in [6]; 71.8 µM in test [7]. The TGI in [17] was 32 µM; in [8] it was 54.4 µM; in [9], 69.2 µM; in test [10], more than 100 µM; in test [11], more than 100 µM; in test [12] it was 51.3 µM. Moreover, the TGI stood at 61.8 µM in [15], 47.7 µM in [16] and 47.7 µM in [13].
As for `Cc1cc(N(CCC#N)CCC#N)ccc1C=Nc1ccc(C(=O)NN2C(=O)/C(=C/c3ccc(N(CCC#N)CCC#N)cc3)N=C2c2cc([N+](=O)[O-])ccc2Cl)cc1`, the TGI in test [1], in [2], in test [3], in [4], in test [5] and in [6] was more than 100 µM in each case. Also, the TGI in [7], in [17], in test [8], in test [9], in [10] and in [11] was more than 100 µM throughout. In addition, the TGI in test [12] and in test [13] was more than 100 µM each time.
